# Patent US20110160251A1, “ANIMAL ECTOPARASITE CONTROL COMPOSITION” (priority 2009, published 2011)
# System: Haemaphysalis longicornis
# Test: Test Example 6: filter paper contact test, fatality of ticks, compound in single solvent
# Type: in vivo
# Settings: 63.6 mg/ml, 0.2 ml on filter paper (treatment amount 2000 mg/m^2), after 24 hours at 25° C.; for Fatality rate of tick (%) Example 2 diisobutyl adipate: solvent diisobutyl adipate; for Fatality rate of tick (%) Example 1 diisopropyl adipate: solvent diisopropyl adipate; for Fatality rate of tick (%) Comparative Example 1 Propylene Carbonate: solvent propylene carbonate
# Experimental: The halogen-containing organosulfur compound (33) or (35) was dissolved in a solvent such that the concentration of the halogen-containing organosulfur compound was 63.6 mg/ml to a test solution. A filter paper was put on the bottom face of a glass petri dish with 7 cm diameter and treated with 0.2 ml of the test solution (treatment amount: 2000 mg/m^2). On the filter paper, 10 Haemaphysalis longicornis were released and allowed to contact the filter paper. The glass petri dish was allowd to stand still at 25° C. After 24 hours, fatalities of the insects were observed.
SMILES,Fatality rate of tick (%) Example 2 diisobutyl adipate [%],Fatality rate of tick (%) Example 1 diisopropyl adipate [%],Fatality rate of tick (%) Comparative Example 1 Propylene Carbonate [%]
"CON=C1CCC(C(C#N)S(=O)(=O)CCC(F)(F)F)CC1 (stereo not drawn) [Compound (33), 2-[4-(methoxyimino)cyclohexyl]-2-(3,3,3-trifluoropropylsulfonyl)acetonitrile]",85,100,25
"CCON=C1CCC(C(C#N)S(=O)(=O)CCC(F)(F)F)CC1 (stereo not drawn) [Compound (35), 2-[4-(ethoxyimino)cyclohexyl]-2-(3,3,3-trifluoropropylsufonyl)acetonitrile]",80,100,20
